The results in this text go back to patent publication US20100222384A1 (priority 2009, published 2010).

As usually defined, the EC50 is the concentration giving half of the maximal effect.

One test concerns Pichinde virus CoAn 3739 strain. It counts as cell-based.
Details: not given
For `CCCOCCCCCCN1C[C@H](O)[C@@H](O)[C@H](O)[C@H]1CO` [N7-O-DNJ, N-(7-Oxadecyl)deoxynojirimycin], the “PICV in vitro inhibition” value was found to be 70%.
As for `COCCCCCCCCCN1C[C@H](O)[C@@H](O)[C@H](O)[C@H]1CO` [N9-DNJ, N-(9-Methoxynonyl)deoxynojirimycin], the “PICV in vitro inhibition” value was “over 99%”.
For `CCCCN1C[C@H](O)[C@@H](O)[C@H](O)[C@H]1CO` [NB-DNJ, N-Butyl deoxynojirimycin], the “PICV in vitro inhibition” value is on record as “over 50%”.

For a further test, the system named is Junin virus Candid #1 strain. Type of test: cell-based. Particulars: read-out: EC50, Junin virus inhibition.
With `[N-]=[N+]=Nc1ccc(NCCCCCCN2C[C@H](O)[C@@H](O)[C@H](O)[C@H]2CO)c([N+](=O)[O-])c1` [NAP-DNJ, N-(N-{4′-azido-2′-nitrophenyl}-6-aminohexyl)deoxynojirimycin], the concentration giving a half-maximal response (EC50) worked out at 10 µM.
Turning to `CCCCN1C[C@H](O)[C@@H](O)[C@H](O)[C@H]1CO` [NB-DNJ, N-Butyl deoxynojirimycin], the concentration for a half-maximal effect (EC50) is 350 µM.
For the compound `CCCCCCCCCN1C[C@H](O)[C@@H](O)[C@H](O)[C@H]1CO` [NN-DNJ, N-Nonyl deoxynojirimycin], the concentration for a half-maximal effect (EC50) was determined as 60 µM.
